Results taken from patent US20040110265A1, “Recovery of enzyme activity from enveloped viruses” (priority 2001, published 2004).

Tests used:
Assay type in all cases: biochemical
human plasma polymerase [1] = test: Resurrection of plasma polymerase activity after treatment with cysteine-modifying agents; conditions: for Polymerase activity after second incubation with indicated substance (% of control): no destroying agent in first incubation; for Conditions required to reactivate polymerase activity treated with the agent: 3 mM agent, then reactivating substances; for Polymerase activity after second incubation with DTT (% of control) / Polymerase activity after second incubation with MSA (% of control) / Polymerase activity after second incubation with cysteine (% of control) / Polymerase activity after second incubation with glutathione (% of control): 3 mM destroying agent first
Experimental: A set of human plasma samples (60% plasma in water) was first incubated with 3 mM of indicated cysteine-modifying substance or water (as control) at room temperature for 1 hour. Serial dilutions of five potentially reactivating substances were then added and the samples were incubated for another hour. Each sample was finally diluted 1:20 and residual RT activity was determined with Cavidi® HS kit Lenti RT. The total reduction in substance concentration between sample incubation and RT assay was 200 times. The RT activities recovered were recalculated into percent of the activity of a control consisting of plasma incubated in absence of additions during both incubation steps.

human plasma RT = test: Selective destruction of endogenous RT activity in plasma, protocol I; conditions: EDTA plasma with disrupted lymphocytes, 1 hour at room temperature
Experimental: EDTA plasma with disrupted lymphocytes from a healthy blood donor and FIV diluted in inactivated foetal calf serum (totally devoid of plasma RT activity) were incubated for 1 hour at room temperature with indicated concentration of: A) 5,5′-dithiobis-(2-nitrobensoic acid), B) thimerosal. The samples were separated according to “Protocol for determination of retroviral RT from material which contains RT blocking antibodies”. The RT activities recovered were determined with an RT assay (Cavidi HS-kit Lenti RT).

human plasma polymerase [2] = test: Elimination of plasma polymerase without purification (substance, then cysteamine); conditions: one hour at room temperature, then 20 mM cysteamine; no purification
Experimental: A) EDTA plasma from a healthy blood donor, B) FIV virus diluted in inactivated FCS (devoid of RT activity) or C) in Dulbeco minimal essential medium with 5% FCS were diluted 1:1 and incubated with indicated concentration of 5,5′-dithiobis-(2-nitrobensoic acid) for one hour at room temperature (20° C.). Each sample was then serially diluted in fourfold steps in conditioning buffer (B). Cysteamine to a final concentration of 20 mM was then added to all samples and the set was incubated for another hour at room temperature. The RT activity of each sample was then determined using Cavidi® HS kit Lenti RT. 15 μl of each sample was added to 135 μl reaction mixture giving a final cysteamine concentration in assay of 2 mM. The RT activity recovered at the three first dilutions corresponding to 7.5, 1.9 and 0.5 μl sample per RT assay was recalculated into percentage of a control incubated in absence of substance and plotted against the substance concentration, see FIG. 6.

[3] = tested on: unidentified RT activity from human plasma; test: RT assay (Cavidi HS-kit Lenti RT) with added components, human plasma polymerase; conditions: 12 ng odT, 100% = no addition
Experimental: (§1) The effect of addition of indicated components to RT reaction mixture devoid of primer (Cavidi HS-kit Lenti RT) was investigated. EDTA plasma from two healthy blood donors (1 μl/assay), recombinant HIV 1 RT or FIV RT of cell culture origin was used as enzyme.

recombinant HIV 1 RT = biological target: T1, recombinant HIV 1 RT (Human immunodeficiency virus type 1 group M subtype B, UniProt P04585); test: RT assay (Cavidi HS-kit Lenti RT) with added components, recombinant HIV 1 RT; conditions: 12 ng odT, 100% = no addition
T1 construct: recombinant HIV 1 RT or FIV RT of cell culture origin was used as enzyme
Experimental: as §1

[4] = tested on: FIV RT of cell culture origin; test: RT assay (Cavidi HS-kit Lenti RT) with added components, FIV RT; conditions: 12 ng odT, 100% = no addition
Experimental: as §1

[5] = 0.1 M final concentration in RT assay
[6] = 1 mM final concentration in RT assay
[7] = 2.5 10^-6 M final concentration in RT assay

Row | SMILES | Polymerase activity after second incubation with indicated substance (% of control) (human plasma polymerase [1]; 1.1 mM substance) | Polymerase activity after second incubation with indicated substance (% of control) (human plasma polymerase [1]; 3.3 mM substance) | Polymerase activity after second incubation with indicated substance (% of control) (human plasma polymerase [1]; 10 mM substance) | Polymerase activity after second incubation with indicated substance (% of control) (human plasma polymerase [1]; 30 mM substance) | Activity of indicated enzyme in RT assay, plasma 1 [3, 7] | Activity of indicated enzyme in RT assay, plasma 2 [3, 7] | Activity of indicated enzyme in RT assay, HIV (recombinant HIV 1 RT; [7]) | Activity of indicated enzyme in RT assay, FIV [4, 7] | further results
1 | O[C@H](CS)[C@H](O)CS (racemic) [DTT, Dithiothreitol] | 260% | 613% | 767% | 860% |  |  |  |  | 
2 | O=C(O)c1cc(SSc2ccc([N+](=O)[O-])c(C(=O)O)c2)ccc1[N+](=O)[O-] [5,5′-Dithiobis-(2-nitrobenzoic acid)] |  |  |  |  |  |  |  |  | Conditions required to reactivate polymerase activity treated with the agent (human plasma polymerase [1]): required strongly reductive low molecular weight thiols for activation; Polymerase activity after second incubation with DTT (% of control) (human plasma polymerase [1]; 1.1 mM DTT): 0%; Polymerase activity after second incubation with MSA (% of control) (human plasma polymerase [1]; 1.1 mM MSA): 0%; Polymerase activity after second incubation with DTT (% of control) (human plasma polymerase [1]; 3.3 mM DTT): 1%; Polymerase activity after second incubation with MSA (% of control) (human plasma polymerase [1]; 3.3 mM MSA): 0%; Polymerase activity after second incubation with DTT (% of control) (human plasma polymerase [1]; 10 mM DTT): 143%; Polymerase activity after second incubation with MSA (% of control) (human plasma polymerase [1]; 10 mM MSA): 0%; Polymerase activity after second incubation with DTT (% of control) (human plasma polymerase [1]; 30 mM DTT): 122%; Polymerase activity after second incubation with MSA (% of control) (human plasma polymerase [1]; 30 mM MSA): 0%; Polymerase activity after second incubation with cysteine (% of control) (human plasma polymerase [1]; 30 mM cysteine): 7%; Polymerase activity after second incubation with glutathione (% of control) (human plasma polymerase [1]; 30 mM glutathione): 2%; Concentration that totally eliminated the human plasma RT activity (human plasma RT): above 0.4 mM; Concentration after which human plasma polymerase activity was eliminated (human plasma polymerase [2]): above 0.47 mM
3 | Cc1ccc(S(=O)(=O)[N-]Cl)cc1.[Na+] [Chloramine T] |  |  |  |  |  |  |  |  | Conditions required to reactivate polymerase activity treated with the agent (human plasma polymerase [1]): required strongly reductive low molecular weight thiols for activation; Polymerase activity after second incubation with DTT (% of control) (human plasma polymerase [1]; 1.1 mM DTT): 2%; Polymerase activity after second incubation with MSA (% of control) (human plasma polymerase [1]; 1.1 mM MSA): 6%; Polymerase activity after second incubation with DTT (% of control) (human plasma polymerase [1]; 3.3 mM DTT): 51%; Polymerase activity after second incubation with MSA (% of control) (human plasma polymerase [1]; 3.3 mM MSA): 0%; Polymerase activity after second incubation with DTT (% of control) (human plasma polymerase [1]; 10 mM DTT): 80%; Polymerase activity after second incubation with MSA (% of control) (human plasma polymerase [1]; 10 mM MSA): 1%; Polymerase activity after second incubation with cysteine (% of control) (human plasma polymerase [1]; 10 mM cysteine): 4%; Polymerase activity after second incubation with glutathione (% of control) (human plasma polymerase [1]; 10 mM glutathione): 3%; Polymerase activity after second incubation with DTT (% of control) (human plasma polymerase [1]; 30 mM DTT): 94%; Polymerase activity after second incubation with MSA (% of control) (human plasma polymerase [1]; 30 mM MSA): 0%; Polymerase activity after second incubation with cysteine (% of control) (human plasma polymerase [1]; 30 mM cysteine): 9%
4 | [Cl-].[K+] [KCl] |  |  |  |  |  |  |  |  | Activity of indicated enzyme in RT assay, plasma 1 [3, 5]: 17%; Activity of indicated enzyme in RT assay, plasma 2 [3, 5]: 20%; Activity of indicated enzyme in RT assay, HIV (recombinant HIV 1 RT; [5]): 87%; Activity of indicated enzyme in RT assay, FIV [4, 5]: 110%
5 | O=C(O)CC(S)C(=O)O (centres unmarked) [MSA, Mercaptosuccinic acid] | 109% | 110% | 64% | 7% |  |  |  |  | 
6 | O=C([O-])P(=O)(O)O.O=C([O-])P(=O)(O)O.O=C([O-])P(=O)(O)O.[Na+].[Na+].[Na+] [PFA, trisodium phosophonoformate] |  |  |  |  |  |  |  |  | Activity of indicated enzyme in RT assay, plasma 1 [3, 6]: 92%; Activity of indicated enzyme in RT assay, plasma 2 [3, 6]: 94%; Activity of indicated enzyme in RT assay, HIV (recombinant HIV 1 RT; [6]): 1%
7 | NCCS [cysteamine] | 15% | 9% | 6% | 6% |  |  |  |  | 
8 | N[C@@H](CS)C(=O)O [cysteine] | 72% | 82% | 145% | 198% |  |  |  |  | 
9 | Nc1ncnc2c1ncn2[C@H]1CC[C@@H](COP(=O)(O)OP(=O)(O)OP(=O)(O)O)O1 [ddATP] |  |  |  |  | 94% | 105% | 90% | 79% | 
10 | Nc1ccn([C@H]2CC[C@@H](COP(=O)(O)OP(=O)(O)OP(=O)(O)O)O2)c(=O)n1 [ddCTP] |  |  |  |  | 94% | 103% | 89% | 75% | 
11 | Nc1nc2c(ncn2[C@H]2CC[C@@H](COP(=O)(O)OP(=O)(O)OP(=O)(O)O)O2)c(=O)[nH]1 [ddGTP] |  |  |  |  | 103% | 109% | 94% | 93% | 
12 | Cc1cn([C@H]2CC[C@@H](COP(=O)(O)OP(=O)(O)OP(=O)(O)O)O2)c(=O)[nH]c1=O [ddTTP] |  |  |  |  | 7% | 9% | 18% | 28% | 
13 | N[C@@H](CCC(=O)N[C@@H](CS)C(=O)NCC(=O)O)C(=O)O [glutathione] | 72% | 78% | 80% | 13% |  |  |  |  | 
